Results: BindingDB's records for doi:10.1021/jm801503n (Burnham Institute For Medical Research, 2009)

Columns and labels:
[1] = target: T1, Mitogen-activated protein kinase 8 (Homo sapiens, UniProt P45983); test: In Vitro Kinase Assay (LanthaScreen Kinase Assay)
Experimental: Compounds were tested for their ability to inhibit JNK1 phosphorylation of ATF2 in the Time-Resolved Fluorescence Resonance Energy Transfer (TR-FRET) based LanthaScreen kinase assay (Invitrogen). The signal was measured at 520/495 nm emission ratio on a fluorescence plate reader (Victor 2, Perkin-Elmer).

[2] = target: T1, Mitogen-activated protein kinase 8; test: DELFIA Assay (Dissociation Enhanced Lanthanide Fluoro-Immuno Assay)

T1 sequence (P45983 whole entry): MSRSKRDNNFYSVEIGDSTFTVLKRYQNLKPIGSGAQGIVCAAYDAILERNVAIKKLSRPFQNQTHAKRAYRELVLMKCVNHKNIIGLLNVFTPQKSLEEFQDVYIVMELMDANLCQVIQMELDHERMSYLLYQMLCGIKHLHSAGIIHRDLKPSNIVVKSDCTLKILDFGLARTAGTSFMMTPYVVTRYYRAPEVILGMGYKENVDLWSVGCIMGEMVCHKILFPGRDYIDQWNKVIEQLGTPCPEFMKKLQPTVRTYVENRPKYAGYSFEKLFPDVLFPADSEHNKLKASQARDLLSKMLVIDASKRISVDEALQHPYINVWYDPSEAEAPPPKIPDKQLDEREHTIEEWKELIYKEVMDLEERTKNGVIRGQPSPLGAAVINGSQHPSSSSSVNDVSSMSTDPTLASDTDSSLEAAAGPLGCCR

Row | SMILES | IC50 [1] [nM] | IC50 [2] [nM] | IC50 ([2]; pH 7.8, 0 °C) [nM]
1 | Fc1ccc(CSc2nnc(SCc3ccc(F)cc3)s2)cc1 [dithioether 1,3,4-thiadiazole, 8b] | > 100000 | – | –
2 | O=[N+]([O-])c1cnc(Sc2nnc(O)n2-c2ccc(F)c(F)c2)s1 [triazole, 3k] | – | 6600 | –
3 | Cn1cccc1-c1nnc(Sc2ncc([N+](=O)[O-])s2)n1-c1ccc(Cl)cc1Cl [triazole, 7b] | – | 2000 | 83
4 | COc1ccc(OC)c(-n2c(Sc3ncc([N+](=O)[O-])s3)n[nH]c2=O)c1 [triazole, 3h] | – | 2400 | 85
5 | COc1cccc(-n2c(O)nnc2Sc2ncc([N+](=O)[O-])s2)c1 [triazole, 3m] | – | 16000 | 118
6 | O=[N+]([O-])c1cnc(Sc2nnc(O)n2-c2ccc(C(F)(F)F)cc2)s1 [triazole, 3p] | – | 3000 | 75
7 | COc1ccc(-n2c(Sc3ncc([N+](=O)[O-])s3)n[nH]c2=O)cc1OC [triazole, 3f] | – | 1000 | 43
8 | O=[N+]([O-])c1cccc(CSc2nnc(SCc3cccc([N+](=O)[O-])c3)s2)c1 [dithioether 1,3,4-thiadiazole, 8d] | > 100000 | – | –
9 | Cn1c(Cc2nc(-c3cnccn3)[n-][o+]2)nnc1Sc1ncc([N+](=O)[O-])s1 [triazole, 7g] | – | 100000 | 131
10 | Nc1nnc(Sc2ncc([N+](=O)[O-])s2)s1 [2-amino-1,3,4-thiadiazole, 9] | 700 | 239 | –
11 | O=c1[nH]nc(Sc2ncc([N+](=O)[O-])s2)n1-c1ccc(OC(F)(F)F)cc1 [triazole, 3i] | – | 2000 | 130
12 | O=[N+]([O-])c1cnc(Sc2nnc(O)n2-c2cccc3ccccc23)s1 [triazole, 3g] | – | 2700 | 48
13 | O=[N+]([O-])c1cnc(Sc2nnc(O)n2C2CCCCC2)s1 [triazole, 3q] | – | 25000 | 56
14 | O=c1[nH]nc(Sc2ncc([N+](=O)[O-])s2)n1-c1cccc(F)c1 [triazole, 3l] | – | 84000 | 626
15 | O=C(O)c1cnc(Sc2nnc(Sc3ncc(C(=O)O)s3)s2)s1 [dithioether 1,3,4-thiadiazole, 8g] | 84000 | 100 | –
16 | O=C(Nc1nnc(Sc2ncc([N+](=O)[O-])s2)s1)c1ccc(F)cc1 [2-amino-1,3,4-thiadiazole, 10] | 84000 | – | –
17 | c1ccc(CSc2nnc(SCc3ccccc3)s2)cc1 [dithioether 1,3,4-thiadiazole, 8a] | > 100000 | – | –
18 | O=c1[nH]nc(Sc2ncc([N+](=O)[O-])s2)n1-c1ccc([N+](=O)[O-])cc1 [triazole, 3j] | – | 400 | 86
19 | O=[N+]([O-])c1cnc(Sc2nnc(-c3cccc4ccccc34)n2Cc2ccco2)s1 [triazole, 7d] | – | 13600 | 57
20 | O=[N+]([O-])c1cnc(Sc2nnc(Sc3ncc([N+](=O)[O-])s3)s2)s1 [dithioether 1,3,4-thiadiazole, 8f] | 800 | 187 | –
21 | O=[N+]([O-])c1ccc(CSc2nnc(SCc3ccc([N+](=O)[O-])cc3)s2)cc1 [dithioether 1,3,4-thiadiazole, 8e] | > 100000 | – | –
22 | O=[N+]([O-])c1cnc(Sc2nnc(-c3ccncc3)n2-c2ccccc2)s1 [triazole, 7f] | – | 3100 | 122
23 | COc1ccc(CSc2nnc(SCc3ccc(OC)cc3)s2)cc1 [dithioether 1,3,4-thiadiazole, 8c] | > 100000 | – | –
24 | COc1cc(OC)cc(-n2c(Sc3ncc([N+](=O)[O-])s3)n[nH]c2=O)c1 [triazole, 3e] | – | 4300 | 105
25 | O=[N+]([O-])c1cnc(Sc2nnc(O)n2-c2cccc(C(F)(F)F)c2)s1 [triazole, 3o] | – | 2900 | 160
26 | CC(C)(C)c1ccc(-n2c(O)nnc2Sc2ncc([N+](=O)[O-])s2)cc1 [triazole, 3a] | – | 39000 | 95
27 | O=c1[nH]nc(Sc2ncc([N+](=O)[O-])s2)n1-c1ccc(F)cc1 [triazole, 3c] | – | 1800 | 225
